Data on eight compounds can be found in ChEMBL document CHEMBL1201862, “PubChem BioAssay data set” (2004).

Molecules are shown by their SMILES. Active and inactive are the calls of the source. Some results are limits rather than exact numbers.

A short description of assay [1]: Shn3 3'UTR reporter signal decrease – cell-based, Clone20 osteoblasts, firefly luciferase, cherry-pick, set 2, Schnurri-3 inhibitor project, dose response (AID 720490).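 Further: actives lower the luminescence signal as inhibitors.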 Type of assay: functional.
The nature of assay [2]: microbe, parasite or virus in culture. The assay is classed as functional. The conditions noted are these: Mycobacterium tuberculosis.
Assay [3] in a line: reduction of Shn3 3'UTR-driven luciferase in osteoblasts – cell-based, Clone20 osteoblasts, firefly luciferase, cherry-picked, dose response (AID 624132).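 Further: firefly luciferase luminescence from reporter carrying the Shn3 3'UTR in osteoblasts.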 The assay is classed as functional.
Assay [4] is described as follows: optical artefact potency, substrate without enzyme – biochemical, fluorescence intensity, triplicate, artefact control for kallikrein-7 zymogen activator project, dose response (AID 720493).
The target of assay [5] is Kallikrein-7 (Homo sapiens, UniProt P49862). Kind of assay: Fluorescence Intensity-based biochemical primary high throughput dose response assay to identify activators of kallikrein-7 (K7) zymogen.
The subject of assay [6] is Vero. Kind of assay: cells. The assay is classed as functional, cell-based. The conditions noted are these: Chlorocebus sabaeus.
A short description of assay [7]: HepG2 cell cytotoxicity, dose response, cytotoxicity control for non-replicating M. tuberculosis project (AID 489018). The assay is classed as functional. The conditions noted are these: Mycobacterium tuberculosis.
Assay [8] in a line: cells. The conditions noted are these: HEK293.
A short description of assay [9]: cells. The assay is classed as functional.
Assay [10] addresses T1, Short transient receptor potential channel 4 (Mus musculus, UniProt Q9QUQ5).
T1 sequence (Q9QUQ5 whole entry): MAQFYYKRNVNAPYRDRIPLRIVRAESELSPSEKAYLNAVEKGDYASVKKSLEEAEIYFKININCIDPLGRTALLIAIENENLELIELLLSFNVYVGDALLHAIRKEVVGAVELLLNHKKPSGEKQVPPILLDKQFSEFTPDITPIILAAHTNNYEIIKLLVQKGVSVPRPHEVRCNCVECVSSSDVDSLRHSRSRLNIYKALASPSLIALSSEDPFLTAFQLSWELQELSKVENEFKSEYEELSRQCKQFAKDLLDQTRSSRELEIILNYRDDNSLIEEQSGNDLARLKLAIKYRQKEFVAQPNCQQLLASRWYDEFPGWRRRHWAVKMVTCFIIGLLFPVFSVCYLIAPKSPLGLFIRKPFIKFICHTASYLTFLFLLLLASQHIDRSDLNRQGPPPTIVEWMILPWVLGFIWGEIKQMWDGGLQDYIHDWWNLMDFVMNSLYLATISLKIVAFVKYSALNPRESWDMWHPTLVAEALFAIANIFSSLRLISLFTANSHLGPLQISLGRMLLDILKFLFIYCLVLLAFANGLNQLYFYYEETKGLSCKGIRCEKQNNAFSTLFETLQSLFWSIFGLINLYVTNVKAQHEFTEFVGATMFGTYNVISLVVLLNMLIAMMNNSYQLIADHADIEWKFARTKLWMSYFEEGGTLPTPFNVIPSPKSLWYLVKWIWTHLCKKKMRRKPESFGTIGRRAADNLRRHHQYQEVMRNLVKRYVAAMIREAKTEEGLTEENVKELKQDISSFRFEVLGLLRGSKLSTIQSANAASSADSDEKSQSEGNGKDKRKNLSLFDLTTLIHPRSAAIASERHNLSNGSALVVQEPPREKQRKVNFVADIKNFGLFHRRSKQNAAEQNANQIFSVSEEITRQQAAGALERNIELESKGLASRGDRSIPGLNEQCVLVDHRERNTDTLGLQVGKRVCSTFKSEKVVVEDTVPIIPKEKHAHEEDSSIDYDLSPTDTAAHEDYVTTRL
Kind of assay: calcium entry via TRPC4 opening agents – cell-based, HEK293 TRPC4/mu-opioid, Fluo-4 calcium, dose response (AID 434937). Type of assay: functional.

Assay [11] in a line: Vero E6 cell cytotoxicity, dose response, cytotoxicity control for non-replicating M. tuberculosis project, secondary assay (AID 492998). To be noted: Vero C1008. Type of assay: functional, VeroE6.
Assay [12] is described as follows: viability loss in HepG2 liver cells – cell-based, ATP luminescence, cherry-pick, set 6, cytotoxicity control, dose response (AID 1053125). The assay is classed as functional.
Assay [13] is described as follows: THP-1 cell cytotoxicity, dose response, cytotoxicity control for non-replicating M. tuberculosis project (AID 489025). The assay is classed as functional.
A short description of assay [14]: HGIII-sPLA2 enzyme inhibition potency – biochemical, QFRET, IC50, dose response (AID 743457).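 Further: green fluorescence rise as the enzyme cleaves BODIPY PC-A2 in liposomes.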
Assay [15] deals with Vero. In words: cells. Type of assay: functional. To be noted: Chlorocebus sabaeus.
The nature of assay [16]: cells. To be noted: A549.
Assay [17] has as its target NAD-dependent protein deacylase sirtuin-5, mitochondrial (Homo sapiens, UniProt Q9NXA8). Kind of assay: sirtuin-5 deacylation blockers, concentration series – biochemical, fluorescence imaging, cherry-pick, set 5, dose response (AID 720591).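 Further: desuccinylation of succinyl peptide AMC substrate read as fluorescence after trypsin release; potency of inhibitors that lower fluorescence and may act on trypsin instead.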
Assay [18] has as its target DNA (cytosine-5)-methyltransferase 1 (Homo sapiens, UniProt P26358). Kind of assay: inhibition of DNA methylation by DNMT1 – biochemical, fluorescent molecular beacon, confirmation (AID 602386). The assay is classed as functional.
Assay [19] is described as follows: HEK-293T viability loss after treatment – luminescence, T-cell screen hits, cytotoxicity control for TCR NF-kB inhibitor project, dose response (AID 489026).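 Further: cells exposed to compound about 14 hours before the viability readout.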 Type of assay: functional, cell-based.
Assay [20] relates to BJ. In words: cells. Type of assay: functional, cell-based. The conditions noted are these: Homo sapiens.
A short description of assay [21]: alpha-synuclein stem-loop luciferase translation blockers – H4 neuroglioma cells, luminescence, confirmation (AID 1988). The assay is classed as functional, cell-based.
Assay [22] in a line: toxicity toward HEK293 cells – cell-based, dry powder samples, cytotoxicity control, dose response (AID 720567). The assay is classed as functional.
The test system of assay [23] is BJ. In words: BJ-TERT fibroblast viability loss – cell-based, RAS-independent, luminescence, dose response (AID 1933). The assay is classed as functional. The conditions noted are these: Homo sapiens.
Assay [24] is described as follows: DRD fibroblast viability loss – cell-based, non-viral oncogenic, luminescence, dose response (AID 1934). The assay is classed as functional. The conditions noted are these: Homo sapiens.
Assay [25] deals with BJ. Kind of assay: BJ-TERT-LT-ST fibroblast viability loss – cell-based, RAS-independent, luminescence, dose response (AID 1935).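 Further: BJ fibroblasts immortalized with TERT plus LT and ST oncogenes.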 The assay is classed as functional. To be noted: Homo sapiens.
Assay [26] is described as follows: luciferase reporter signal suppression in cells – H4 neuroglioma cells, luminescence, dose response (AID 1990). The assay is classed as functional, cell-based.
The nature of assay [27]: Luminescence Cell-Based Dose Response HTS to Identify Inhibitors of 5'UTR Stem-Loop Driven Prion Protein mRNA Translation in H4 Neuroglioblastoma Cells. [Related pubchem assays: 1827 (Project Summary), 1813 (Primary HTS)]. Type of assay: functional.
Assay [28] can be described thus: toxicity toward HepG2 hepatoma cells – cell-based, dry powder samples, cytotoxicity control, dose response (AID 720568). Type of assay: functional.
For assay [29], the system named is BJ. Kind of assay: growth inhibition of engineered Ras-driven BJ cells – cell-based, alamar blue fluorescence, cherrypicked samples, dose response (AID 2631).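 Further: confirmatory dose-response assay in RAS-dependent BJ fibroblasts engineered with TERT, LT and ST, with cytotoxicity read by fluorescence.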 Type of assay: functional. To be noted: Homo sapiens. Background: Resazurin is reduced to fluorescent resorufin, in cell work by metabolically active cells.
Assay [30] in a line: inhibitors of TRPM1-promoter reporter in SK-MEL-5 – cell-based, luciferase, dry powder, set 8, MITF inhibitor project, dose response (AID 624430). Type of assay: functional.
Assay [31] is described as follows: MITF Orthogonal Assay: SK-MEL-5 CTG Assay Measured in Cell-Based System Using Plate Reader - 2084-02_Inhibitor_Dose_DryPowder_Activity_Set7. The assay is classed as functional.
Assay [32] in a line: MITF: Counter assay: A375 proliferation Measured in Cell-Based System Using Plate Reader - 2084-03_Inhibitor_Dose_DryPowder_Activity_Set8. The conditions noted are these: A-375. The assay is classed as functional.
Assay [33] in a line: blockers of FN fibrillogenesis by fibroblasts – AH1F cells, Alexa488-FN fluorescence, cherry-picks, dose response (AID 1035475). Type of assay: functional, cell-based.
Assay [34] can be described thus: viability loss in HEK293 kidney cells – cell-based, cherry-picks, set 5, cytotoxicity control, dose response (AID 1053117). The assay is classed as functional.
Assay [35] can be described thus: viability loss in A549 lung cancer cells – cell-based, cherry-picks, […], cytotoxicity control, dose response (AID 1053119). Type of assay: functional.
A short description of assay [36]: viability loss in HepG2 hepatoma cells – cell-based, cherry-picks, set 5, cytotoxicity control, dose response (AID 1053118). The assay is classed as functional.
Assay [37] in a line: reduced cellular PGC1a acetyl-lysine signal – cell-based, cherry-picked samples, dose response (AID 720514).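 Further: potency may reflect raised or lowered acetylation signal.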 The assay is classed as functional.
Assay [38] can be described thus: P. falciparum Dd2 growth inhibitors, dose response, SYBR Green, cherry-picked samples (AID 1159567). The assay is classed as functional, cell-based.
Assay [39] in a line: general mammalian cell viability loss – activator set, cherry-pick, cytotoxicity control for miR-122 modulator project, dose response (AID 720690).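 Further: HEK293T human cells scored for general mammalian cytotoxicity.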 The assay is classed as functional, cell-based.
Assay [40] can be described thus: toxicity to human hepatoma HepG2 cells – cell-based, cherry-picked samples, cytotoxicity control, dose response (AID 1159577). The assay is classed as functional.
A short description of assay [41]: activation of miR-122 Renilla sensor silencing – cell-based, Huh7 psiCHECK-miR122, Renilla luciferase, cherry-picked, dose response (AID 651956).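 Further: huh7 hepatoma cells stably carrying a psiCHECK-2 miR-122 sensor plasmid; renilla luciferase signal reporting endogenous miR-122 activity after 48 h compound exposure.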 Type of assay: functional.

A word on the AC50: it is the midpoint of the concentration-response curve, whichever way the signal moves. What is called EC50 is the midpoint of the concentration-response curve. For orientation: IC50 means the concentration needed to halve the response being measured.

Sequence of NAD-dependent protein deacylase sirtuin-5, mitochondrial (Q9NXA8 whole entry): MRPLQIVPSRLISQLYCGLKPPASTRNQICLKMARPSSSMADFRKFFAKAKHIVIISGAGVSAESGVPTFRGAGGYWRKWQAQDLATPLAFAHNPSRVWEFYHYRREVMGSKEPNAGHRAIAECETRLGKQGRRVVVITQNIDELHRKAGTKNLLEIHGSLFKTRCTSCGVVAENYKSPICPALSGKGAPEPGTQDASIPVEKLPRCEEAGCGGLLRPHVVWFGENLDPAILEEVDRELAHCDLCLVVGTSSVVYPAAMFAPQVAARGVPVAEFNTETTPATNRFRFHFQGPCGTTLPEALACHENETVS
Sequence of Kallikrein-7 (P49862 whole entry): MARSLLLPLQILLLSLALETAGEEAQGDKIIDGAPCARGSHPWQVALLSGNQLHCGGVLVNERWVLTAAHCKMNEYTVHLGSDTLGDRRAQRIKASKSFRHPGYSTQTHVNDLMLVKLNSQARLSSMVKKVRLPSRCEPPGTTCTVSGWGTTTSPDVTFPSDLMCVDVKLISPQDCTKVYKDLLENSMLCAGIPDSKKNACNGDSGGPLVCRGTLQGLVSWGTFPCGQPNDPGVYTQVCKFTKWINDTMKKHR
Sequence of DNA (cytosine-5)-methyltransferase 1 (P26358 whole entry): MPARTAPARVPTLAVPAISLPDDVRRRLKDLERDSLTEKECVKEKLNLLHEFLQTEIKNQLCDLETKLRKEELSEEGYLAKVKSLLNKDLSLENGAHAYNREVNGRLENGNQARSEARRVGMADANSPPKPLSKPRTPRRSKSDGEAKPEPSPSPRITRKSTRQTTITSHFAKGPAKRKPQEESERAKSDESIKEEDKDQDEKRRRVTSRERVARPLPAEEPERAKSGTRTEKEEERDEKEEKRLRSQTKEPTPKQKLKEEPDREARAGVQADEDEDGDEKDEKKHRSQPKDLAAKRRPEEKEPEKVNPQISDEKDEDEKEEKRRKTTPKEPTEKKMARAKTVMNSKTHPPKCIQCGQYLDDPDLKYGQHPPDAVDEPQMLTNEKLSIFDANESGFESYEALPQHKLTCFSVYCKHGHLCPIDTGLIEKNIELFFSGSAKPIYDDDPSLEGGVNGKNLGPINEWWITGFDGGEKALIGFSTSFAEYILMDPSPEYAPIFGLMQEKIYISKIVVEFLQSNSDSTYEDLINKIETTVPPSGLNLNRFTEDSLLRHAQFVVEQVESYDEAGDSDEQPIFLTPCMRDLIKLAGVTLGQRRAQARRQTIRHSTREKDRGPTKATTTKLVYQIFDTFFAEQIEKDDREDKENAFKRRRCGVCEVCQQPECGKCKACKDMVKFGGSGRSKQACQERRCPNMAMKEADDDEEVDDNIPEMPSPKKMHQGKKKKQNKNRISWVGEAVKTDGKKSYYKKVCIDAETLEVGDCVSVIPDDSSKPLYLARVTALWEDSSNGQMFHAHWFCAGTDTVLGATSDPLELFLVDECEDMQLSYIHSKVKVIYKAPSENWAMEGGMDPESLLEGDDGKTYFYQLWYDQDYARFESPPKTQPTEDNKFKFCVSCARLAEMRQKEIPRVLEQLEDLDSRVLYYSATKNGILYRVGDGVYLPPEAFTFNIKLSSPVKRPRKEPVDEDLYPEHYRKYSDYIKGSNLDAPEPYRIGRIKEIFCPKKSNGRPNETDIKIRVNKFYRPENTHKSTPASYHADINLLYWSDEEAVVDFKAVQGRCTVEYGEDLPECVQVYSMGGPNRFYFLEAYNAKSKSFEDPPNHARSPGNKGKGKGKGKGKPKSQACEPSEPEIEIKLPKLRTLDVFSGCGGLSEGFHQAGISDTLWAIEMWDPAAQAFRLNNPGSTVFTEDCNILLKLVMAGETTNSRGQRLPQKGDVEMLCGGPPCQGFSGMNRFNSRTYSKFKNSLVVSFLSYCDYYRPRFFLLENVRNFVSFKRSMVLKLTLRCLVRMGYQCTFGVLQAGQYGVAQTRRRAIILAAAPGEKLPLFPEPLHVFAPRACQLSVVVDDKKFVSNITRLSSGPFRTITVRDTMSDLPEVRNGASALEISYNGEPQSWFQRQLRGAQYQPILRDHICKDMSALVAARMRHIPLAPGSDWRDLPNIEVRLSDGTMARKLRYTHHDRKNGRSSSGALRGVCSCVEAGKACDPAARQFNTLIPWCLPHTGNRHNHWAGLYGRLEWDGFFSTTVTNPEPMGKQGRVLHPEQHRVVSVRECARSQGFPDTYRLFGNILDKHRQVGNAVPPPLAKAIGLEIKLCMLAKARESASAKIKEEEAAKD

Consider `O=C(c1nnc(O)c2ccccc12)N1CCN(C2c3ccccc3-c3ccccc32)CC1`, for which the AC50 was 10.7 µM (active) in [1] and 7.69 µM (active) in assay [3]. For the same compound, the CC50 in [2] is > 40 µM (active).

As to `O=C1c2ccccc2NC(c2cccnc2)N1c1ccccc1F` (stereo unspecified), the EC50 in assay [4] is > 7.72 µM (active); in [5], > 69.5 µM (inactive).

Regarding `CCCOc1ccc(C(=O)NNC(=S)NC(=O)c2ccco2)cc1`, the IC50 in assay [6] is > 25 µM (active); in [9], 2.55 µM (active); in assay [14], 44 µM (inactive). Further, the CC50 was 17.4 µM (active) in assay [7], 8.73 µM (active) in assay [11], 7.6 µM (active) in [13] and 20.7 µM (active) in assay [15]. For the same compound, the AC50 in assay [8] is 42.2 µM (active); in [12], > 52 µM (inactive); in assay [16], 36.8 µM (active). Also, in [10], the EC50 was 5.96 µM (active).

For the compound `Cc1ccc(S(=O)(=O)N2[C@@H](c3ccc(C(C)(C)C)cc3)C(C(=O)O)=CC[C@H]2c2ccc(C(C)C)cc2)cc1`, the AC50 in assay [17] is 17.5 µM (active). The half-maximal inhibitory concentration (IC50) in [18] was 5.04 µM (active).

For the compound `CC(=O)c1ccc(Oc2cc(C)nc(-n3nc(C)cc3C)n2)cc1`, the IC50 in [19] was > 80 µM (inactive). Besides, the EC50 in assay [20] was 63.8 µM (inconclusive); in [21] it was 0.44 µM (active); in assay [23], 1.95 µM (active); in assay [24], 0.917 µM (active); in assay [25] it was 1.45 µM (active); in assay [26], 4.5 µM (active). The EC50 in assay [27] is 0.339 µM (active); in assay [29] it was 0.264 µM (active). For the same compound, the AC50 is 15.8 µM (active) in [22] and > 30 µM (inactive) in [28].

With `CN(C1=CC(=O)c2ccccc2C1=O)c1ccccc1`, the AC50 in assay [30] was 16.2 µM (active); in [31], 2.32 µM (active); in [32], > 70 µM (inactive).

Consider `COc1ccc(S(=O)(=O)N2CCCCC2c2cc(C(=O)Nc3ccc4c(c3)OCO4)no2)cc1` (stereo unspecified), for which the AC50 in assay [33] is 32.6 µM (active); in [34] it was 11.4 µM (active); in assay [35], 23.9 µM (active); in assay [36], 15.4 µM (active).

As to `O=C(Nc1ccccc1F)N1CCCCN2[C@@H](CO)[C@@H](c3ccc(C#Cc4ccccc4)cc3)[C@@H]2C1`, the AC50 in assay [37] was 15.9 µM (active); in assay [38], 2.13 µM (active); in assay [39], 7.45 µM (active); in assay [40], 9.78 µM (active); in assay [41] it was 8.65 µM (active).
